# Data reported in patent publication US8192962B2, “Processes for detecting toxic substances” (Daikin Industries, Ltd., priority 2001, dated 2012).
# Test system: Detoxification protein genes
# Test: DNA chip mRNA expression in yeast, detoxification protein genes (Table 8)
# Assay type: cell-based, Saccharomyces cerevisiae S288C
# Outline: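 Whole-genome yeast DNA chip hybridization (65° C., >12 h) of Cy-labeled cDNA from S288C cells exposed 2 h at 25° C. to a sub-lethal toxicant dose in YPD; value is intensity relative to chemical-free control.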
smiles,measurement,setting,value
"S=C([S-])NCCNC(=S)[S-].[Zn+2] [(11), zinc N,N′-ethylenebis(dithiocarbamate)]",The level of expressed mRNA in the presence of chemical substance/The level of expressed mRNA in the absence of chemical substance,yeast gene YBL064C,2.9
same,The level of expressed mRNA in the presence of chemical substance/The level of expressed mRNA in the absence of chemical substance,yeast gene YBR008C,9.4
same,The level of expressed mRNA in the presence of chemical substance/The level of expressed mRNA in the absence of chemical substance,yeast gene YBR145W,1.1
same,The level of expressed mRNA in the presence of chemical substance/The level of expressed mRNA in the absence of chemical substance,yeast gene YBR244W,1.5
same,The level of expressed mRNA in the presence of chemical substance/The level of expressed mRNA in the absence of chemical substance,yeast gene YBR293W,1.1
same,The level of expressed mRNA in the presence of chemical substance/The level of expressed mRNA in the absence of chemical substance,yeast gene YCL035C,2.1
same,The level of expressed mRNA in the presence of chemical substance/The level of expressed mRNA in the absence of chemical substance,yeast gene YCL069W,1.0
same,The level of expressed mRNA in the presence of chemical substance/The level of expressed mRNA in the absence of chemical substance,yeast gene YCR083W,1.8
same,The level of expressed mRNA in the presence of chemical substance/The level of expressed mRNA in the absence of chemical substance,yeast gene YDL100C,2.8
same,The level of expressed mRNA in the presence of chemical substance/The level of expressed mRNA in the absence of chemical substance,yeast gene YDL168W,1.9
same,The level of expressed mRNA in the presence of chemical substance/The level of expressed mRNA in the absence of chemical substance,yeast gene YDR256C,1.4
same,The level of expressed mRNA in the presence of chemical substance/The level of expressed mRNA in the absence of chemical substance,yeast gene YDR453C,2.3
same,The level of expressed mRNA in the presence of chemical substance/The level of expressed mRNA in the absence of chemical substance,yeast gene YDR513W,2.0
same,The level of expressed mRNA in the presence of chemical substance/The level of expressed mRNA in the absence of chemical substance,yeast gene YDR538W,0.9
same,The level of expressed mRNA in the presence of chemical substance/The level of expressed mRNA in the absence of chemical substance,yeast gene YEL027W,0.9
same,The level of expressed mRNA in the presence of chemical substance/The level of expressed mRNA in the absence of chemical substance,yeast gene YEL065W,0.6
same,The level of expressed mRNA in the presence of chemical substance/The level of expressed mRNA in the absence of chemical substance,yeast gene YER185W,1.6
same,The level of expressed mRNA in the presence of chemical substance/The level of expressed mRNA in the absence of chemical substance,yeast gene YFL050C,1.2
same,The level of expressed mRNA in the presence of chemical substance/The level of expressed mRNA in the absence of chemical substance,yeast gene YGL013C,0.9
same,The level of expressed mRNA in the presence of chemical substance/The level of expressed mRNA in the absence of chemical substance,yeast gene YGL254W,1.1
same,The level of expressed mRNA in the presence of chemical substance/The level of expressed mRNA in the absence of chemical substance,yeast gene YGR088W,3.9
same,The level of expressed mRNA in the presence of chemical substance/The level of expressed mRNA in the absence of chemical substance,yeast gene YGR138C,0.7
same,The level of expressed mRNA in the presence of chemical substance/The level of expressed mRNA in the absence of chemical substance,yeast gene YGR197C,1.1
same,The level of expressed mRNA in the presence of chemical substance/The level of expressed mRNA in the absence of chemical substance,yeast gene YGR209C,3.1
same,The level of expressed mRNA in the presence of chemical substance/The level of expressed mRNA in the absence of chemical substance,yeast gene YGR224W,0.8
same,The level of expressed mRNA in the presence of chemical substance/The level of expressed mRNA in the absence of chemical substance,yeast gene YHL040C,1.7
same,The level of expressed mRNA in the presence of chemical substance/The level of expressed mRNA in the absence of chemical substance,yeast gene YHL047C,1.0
same,The level of expressed mRNA in the presence of chemical substance/The level of expressed mRNA in the absence of chemical substance,yeast gene YHR008C,2.1
same,The level of expressed mRNA in the presence of chemical substance/The level of expressed mRNA in the absence of chemical substance,yeast gene YHR048W,2.0
same,The level of expressed mRNA in the presence of chemical substance/The level of expressed mRNA in the absence of chemical substance,yeast gene YHR053C,1.4
same,The level of expressed mRNA in the presence of chemical substance/The level of expressed mRNA in the absence of chemical substance,yeast gene YHR055C,1.8
same,The level of expressed mRNA in the presence of chemical substance/The level of expressed mRNA in the absence of chemical substance,yeast gene YIR002C,0.8
same,The level of expressed mRNA in the presence of chemical substance/The level of expressed mRNA in the absence of chemical substance,yeast gene YIR038C,3.4
same,The level of expressed mRNA in the presence of chemical substance/The level of expressed mRNA in the absence of chemical substance,yeast gene YJL101C,2.7
same,The level of expressed mRNA in the presence of chemical substance/The level of expressed mRNA in the absence of chemical substance,yeast gene YJR104C,2.6
same,The level of expressed mRNA in the presence of chemical substance/The level of expressed mRNA in the absence of chemical substance,yeast gene YKL026C,3.0
same,The level of expressed mRNA in the presence of chemical substance/The level of expressed mRNA in the absence of chemical substance,yeast gene YKL064W,0.7
same,The level of expressed mRNA in the presence of chemical substance/The level of expressed mRNA in the absence of chemical substance,yeast gene YKR066C,1.3
same,The level of expressed mRNA in the presence of chemical substance/The level of expressed mRNA in the absence of chemical substance,yeast gene YKR105C,0.0
same,The level of expressed mRNA in the presence of chemical substance/The level of expressed mRNA in the absence of chemical substance,yeast gene YKR106W,1.8
same,The level of expressed mRNA in the presence of chemical substance/The level of expressed mRNA in the absence of chemical substance,yeast gene YLL028W,0.7
same,The level of expressed mRNA in the presence of chemical substance/The level of expressed mRNA in the absence of chemical substance,yeast gene YLL057C,1.3
same,The level of expressed mRNA in the presence of chemical substance/The level of expressed mRNA in the absence of chemical substance,yeast gene YLL060C,14.1
same,The level of expressed mRNA in the presence of chemical substance/The level of expressed mRNA in the absence of chemical substance,yeast gene YLR043C,1.4
same,The level of expressed mRNA in the presence of chemical substance/The level of expressed mRNA in the absence of chemical substance,yeast gene YLR046C,0.9
same,The level of expressed mRNA in the presence of chemical substance/The level of expressed mRNA in the absence of chemical substance,yeast gene YML028W,1.0
same,The level of expressed mRNA in the presence of chemical substance/The level of expressed mRNA in the absence of chemical substance,yeast gene YML116W,4.3
same,The level of expressed mRNA in the presence of chemical substance/The level of expressed mRNA in the absence of chemical substance,yeast gene YMR015C,1.0
same,The level of expressed mRNA in the presence of chemical substance/The level of expressed mRNA in the absence of chemical substance,yeast gene YMR038C,2.7
same,The level of expressed mRNA in the presence of chemical substance/The level of expressed mRNA in the absence of chemical substance,yeast gene YNL239W,1.9
same,The level of expressed mRNA in the presence of chemical substance/The level of expressed mRNA in the absence of chemical substance,yeast gene YNL241C,3.0
same,The level of expressed mRNA in the presence of chemical substance/The level of expressed mRNA in the absence of chemical substance,yeast gene YNL259C,1.6
same,The level of expressed mRNA in the presence of chemical substance/The level of expressed mRNA in the absence of chemical substance,yeast gene YOL158C,0.7
same,The level of expressed mRNA in the presence of chemical substance/The level of expressed mRNA in the absence of chemical substance,yeast gene YOR031W,1.2
same,The level of expressed mRNA in the presence of chemical substance/The level of expressed mRNA in the absence of chemical substance,yeast gene YOR153W,1.0
same,The level of expressed mRNA in the presence of chemical substance/The level of expressed mRNA in the absence of chemical substance,yeast gene YOR247W,2.9
same,The level of expressed mRNA in the presence of chemical substance/The level of expressed mRNA in the absence of chemical substance,yeast gene YOR251C,1.0
same,The level of expressed mRNA in the presence of chemical substance/The level of expressed mRNA in the absence of chemical substance,yeast gene YOR273C,1.5
same,The level of expressed mRNA in the presence of chemical substance/The level of expressed mRNA in the absence of chemical substance,yeast gene YPL163C,0.5
same,The level of expressed mRNA in the presence of chemical substance/The level of expressed mRNA in the absence of chemical substance,yeast gene YPR200C,2.0
